Tests used:
[1] = biological target: T1, human SOD1 protein (#HY-P71048, MCE) (Homo sapiens, UniProt P00441); experiment: SPR (Biacore T200, CM5 chip, SOD1 immobilised); assay type: binding
T1 construct: commercial human SOD1 protein (MCE); amine-coupled to CM5 chip

SOD1 (A549 cells) = biological target: T2, SOD1 (A549 cells) (Homo sapiens, UniProt P00441); experiment: CETSA, western blot; assay type: biochemical; conditions: 10 μM DIPY, 30 min; A549 cells pretreated with RSL3 5 μM for 8 h; 45-72 °C
T2 construct: endogenous full-length SOD1 in A549 cells, read by western blot
T2 sequence (P00441 2-154): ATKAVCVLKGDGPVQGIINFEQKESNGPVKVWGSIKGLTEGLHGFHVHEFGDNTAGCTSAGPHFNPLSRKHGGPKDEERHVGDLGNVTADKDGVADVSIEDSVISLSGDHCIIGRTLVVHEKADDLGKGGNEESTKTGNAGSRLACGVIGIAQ

T1 sequence (P00441 2-154, one chain of several): as the sequence (P00441 2-154) above

Kd [1]: 8.83 µM
SMILES: OCCN(CCO)c1nc(N2CCCCC2)c2nc(N(CCO)CCO)nc(N3CCCCC3)c2n1 [Dipyridamole]
thermal stability (CETSA) (SOD1 (A549 cells)): DIPY elevated the thermal stability of SOD1 compared with the control group
